The text below walks through data of paper PMC12005472 (Chemmedchem, 2025).

One data set addresses Asp25 (UniProt position 93, KEALLDTGADD). As to conditions: cited from earlier work.
Data set [1] has as its system HIV-1 protease (HIV-1 PR). Also noted: method as in PMID 1883831. As to conditions: experiment; cited from earlier work.
The subject of data set [2] is Endothiapepsin (EP). The source says:
The total proton exchange ( ΔnH^+ ) in a binding event can be determined by ITC measurements in different buffers with distinct heats of ionization ( ΔHionization ), according to the Eq. 1: (1) ΔHobserved=ΔHcorrected+ΔnH^+(ΔHionization)
Integrating the raw thermograms yields the experimentally observed enthalpies ( ΔHobserved ), which can be used for a linear regression with the slope corresponding to ΔnH^+ and the y‐axis intercept corresponding to the buffer‐corrected enthalpy of the binding reaction ( ΔHcorrected ).
Figure 3 Left: Calculation of the heat of ionization. The experimentally observed enthalpies ΔHobs are plotted against the heat of ionization ΔHion of the respective buffers (phosphate: 3.60 kJ mol^−1 ADA: 12.23 kJ mol^−1, HEPES: 20.04 kJ mol^−1, TRIS: 47.45 kJ mol^−1).[14] […] Right: Thermodynamic profiles of complex formation in phosphate, ADA, HEPES and TRIS buffers and the buffer‐corrected thermodynamic profile. For the buffer‐corrected profile, the change in Gibbs free energy ΔG is calculated as the average of ΔG observed in the four buffers, ΔH is obtained as described above, and the entropic contribution − TΔS is calculated from the numerical difference between ΔG and ΔH .
Cacodylate was excluded as a buffering agent due to its toxicity. […] 2.5 % (v/v) DMSO corresponds to a molar concentration of 0.35 M.
Each parameter alone can have a clear effect on the thermodynamic properties.[11] We used the MicroCal PEAQ‐ITC Automated ITC with a cell volume of 200 μL; 25 °C is a standard temperature, where most of the experiments are carried out, not only ITC. We followed standard protocols for protein, ligand, and buffer concentrations.[16]
The dialysis was performed in a 600 mL beaker. The membrane of the cassette was soaked in the dialysis buffer for 2 min by holding it (with gloves) in the beaker filled with dialysis buffer at pH 7.0 (TRIS, ADA, HEPES and phosphate, respectively). After pre‐soaking, the cassette was carefully dried with a paper towel to prevent buffer from entering the cassette, but without touching the membranes. 3 mL of at least 4 mg mL^−1 protein solution was added to the cassette using a 200 μL micropipette. When the cassette was closed with the stopper, any remaining air was gently evacuated from the dialysis chamber. The protein was then dialyzed against 500 mL of dialysis buffer for 2 hours at RT with slow stirring. The buffer was then replaced with 500 mL of fresh buffer and stirred again for 2 hours at RT. After another change of buffer, the dialysate was stored in the refrigerator overnight (12–20 hours). The next day, the protein solution was removed using a syringe with a long cannula. The protein was stored on ice before being shock frozen in liquid nitrogen to determine the concentration using NanoDrop™ 2000c (Thermo Scientific, USA).
ITC measurements were performed using the MicroCal PEAQ‐ITC Automated ITC (Malvern Panalytical, Worcestershire, UK). […] For the reference titration, the same titrant was titrated into the buffer solution. The obtained thermogram peaks of all titrations were integrated and fitted with MicroCal PEAQ‐ITC Analysis Software 1.41.

Data set [3] deals with Endothiapepsin (EP). As to conditions: ITC; 80 μM EP, 1200 μM pepA, 20 mM buffer (ACES, Cacodylate, HEPES, Phosphate, TRIS), 16 °C, pH 7.0; ref 12 (Gómez and Freire); cited from earlier work. (In general: ITC needs no label: the signal is the heat of the interaction.)
For data set [4], the system named is Endothiapepsin (EP). Particulars: in words; ref not given; cited from earlier work.

Like-named read-outs stand apart in the source and are kept apart here.

By pKa is commonly meant the pH at which an ionisable group is half protonated. Turning to “HIV-1 protease (Human immunodeficiency virus 1)”, the pKa with Asp25 is on record as 3.1; with Asp25 (record 2) it was 5.2.

Take “HIV‐1 PR: HIV-1 protease, an aspartic protease, used to calibrate the Poisson-Boltzmann methodology”: in data set [1], the “pKa of Asp25” value is reported as 3.1 and the “pKa of Asp25’” value was 5.2.

As to Iva‐Val‐Val‐Sta‐Ala‐Sta [pepA], the “proton uptake upon pepA binding to EP, in words” value with Endothiapepsin (EP) [2] was “uptake of more than one mole of protons”. Further, the “total proton exchange ΔnH^+ (proton uptake per binding reaction)” value with Endothiapepsin (EP) [2] (ITC, slope of ΔHobs vs ΔHionization in phosphate, ADA, HEPES, TRIS, pH 7.0, 25 °C, 50 μM EP, 500 μM pepA, 100 mM buffer, 2.5 % DMSO, 0.1 % Tween20, on average) is reported as 1.67±0.12 protons per binding reaction. Moreover, in the data set on Endothiapepsin (EP) [2] (TRIS buffer 100 mM, pH 7.0, 25 °C, 2.5 % DMSO, 0.1 % Tween20), the “enthalpic contribution (ΔHobserved) in TRIS” value worked out at 7.34 ± 0.693 kcal/mol. In addition, in the data set with Endothiapepsin (EP) [2] (pH 7), the overall proton uptake is given as 1.67±0.12 moles of protons and the “total proton exchange ΔnH^+ (proton uptake)” value came out at 1.67 ± 0.12 mol. The “buffer-corrected enthalpy of the binding reaction ΔHcorrected” value in the data set on Endothiapepsin (EP) [2] (y-axis intercept of ΔHobs vs ΔHion in phosphate, ADA, HEPES, TRIS, pH 7.0, 25 °C) is -12.7 kcal/mol. The “proton exchange ΔnH^+ previously published” value with Endothiapepsin (EP) [3] was 1.1±0.1 protons. Moreover, the “pH dependence of affinity” value in the data set on Endothiapepsin (EP) [4] is recorded as “becomes higher at more acidic pH”.
